Data published in US12202805B2, “Process for preparing (5S)-{[2-(4-carboxyphenyl)ethyl] |2-(2-{|3-chloro-4'-(trifluoromethyl)biphenyl-4-yl]methoxy}phenyl)ethyl]aminol-5,6,7,8-tetrahydroquinoline-2-carboxylic acid and its crystalline forms for use as pharmaceutically active compound” (Bayer Aktiengesellschaft, priority 2021, dated 2025).
Like-named read-outs stand apart in the source and are kept apart here.

Assay: E-2.3 inhalative, oral and intravenous single doses in healthy male subjects: plasma concentrations and lung deposition
Format: in vivo, human
Conditions: for concentration at 0 h: 0 h after dose, heading: Geometric mean of plasma concentrations; for concentration at 0.25 h: 0.25 h after dose; for concentration at 0.5 h: 0.5 h after dose; for concentration at 0.75 h: 0.75 h after dose; for concentration at 1 h: 1 h after dose; for concentration at 1.5 h: 1.5 h after dose; for concentration at 2 h: 2 h after dose; for concentration at 2.5 h: 2.5 h after dose; for concentration at 3 h: 3 h after dose; for concentration at 4 h: 4 h after dose; for concentration at 6 h: 6 h after dose; for concentration at 8 h: 8 h after dose; for concentration at 12 h: 12 h after dose; for concentration at 15 h: 15 h after dose; for concentration at 24 h: 24 h after dose; for concentration at 28 h: 28 h after dose; for concentration at 32 h: 32 h after dose; for concentration at 36 h: 36 h after dose
Method: E-2.3 Inhalative, Oral and Intravenous Administration of Single Doses of sGC an Activator in Healthy Male Subjects—Lung Deposition
Healthy white male subjects, aged 18 to 45 years with a body mass index (BMI) above/equal 18.5 and below/equal 29.9 kg/m^2 were treated in a clinical phase I study with a single inhaled dose of 1000 μg (nominal dose), a single inhaled dose of 1000 μg (nominal dose)+charcoal block, a single oral dose of 1000 μg and a single infusion over 2 h of 100 μg of example 4. As the bioavailability of an intravenous application is generally 100% per definition and therefore higher than in case of an oral or […], the intravenous dose was carefully selected to be lower than the oral and inhaled dose to avoid higher plasma concentration resulting from a high IV dose and potential side effect, e.g. reduction in blood pressure or syncope. Therefore, 100 μg was selected for the IV dose in this investigation. Seven days washout period between treatments was applied. The subjects swallowed a solution for oral administration (20 ml comprising 1000 μg, see under C-2, table 26). The subjects received a solution as a single infusion over 2 hours (2 ml comprising 100 μg, see under C-2 table 26). The subjects inhaled the drug powder from capsules (see under C-1, tables 17 and 20) inserted into a handheld inhalation device by one deep inhalative breath. After inhalation of the dry powder formulation of this drug, some parts of the nominal dose remain in the capsule and the device, the dose which reaches the body at the mouthpiece is called the emitted dose. The emitted dose can be calculated/determined as followed: nominal dose−(remains in the capsule+remains in the device). After inhalation of the dry powder, one part of the emitted dose enters the gastrointestinal tract (GIT) and is called the oral part of the emitted dose, the other part of the emitted dose which reaches the lung through the respiratory airways is called the lung dose and represents the lung deposited dose. As the lung is the target organ of the effect, the lung deposited dose must be quantified. Lung deposition can be indirectly estimated, by determining the part of the nominal dose which reaches the GIT and the remains in the capsule and the device. To investigate and determine lung deposition, the following investigations were done (see also FIG. 59): • 1—Inhaled application of a single dose of 1000 μg of the dry powder. • 2—Inhaled application of a single dose of 1000 μg of the dry powder in combination with oral administration of charcoal block. The charcoal block capped the oral absorption of GIT part of the dose, as example 4 completely adsorbed to charcoal block. This implies that the concentrations of example 4 measured reach the systemic circulation via the lung. • 3—Administration of a single oral dose of […] example 4 to determine the oral absorption. • 4—Administration of a 2 h infusion of example 4 to investigate the elimination.

[1] = male, human, plasma, inhaled, 1000 μg, healthy male subjects, single 1000 μg inhale + Charcoal Block, N = 16, read-out: Geometric mean of plasma concentrations
[2] = male, human, plasma, inhaled, 1000 μg, healthy male subjects, single 1000 μg inhale, N = 16, read-out: Geometric mean of plasma concentrations
[3] = male, human, plasma, iv, 100 μg, healthy male subjects, 100 μg IV infusion over 2 h, N = 15, read-out: Geometric mean of plasma concentrations
[4] = male, human, plasma, po, 1000 μg, healthy male subjects, single 1000 μg oral, N = 16, read-out: Geometric mean of plasma concentrations

O=C(O)c1ccc(CCN(CCc2ccccc2OCc2ccc(-c3ccc(C(F)(F)F)cc3)cc2Cl)[C@H]2CCCc3nc(C(=O)O)ccc32)cc1 [example 4, (5S)—{[2-(4-Carboxyphenyl)ethyl][2-(2-{[3-chloro-4′-(trifluoromethyl)biphenyl-4-yl]methoxy}phenyl)-ethyl]amino}-5,6,7,8-tetrahydroquinoline-2-carboxylic acid as Monohydrate I]
emitted dose (after inhalation of 1000 μg in humans): 720 µg | oral part of the dose (inhaled 1000 μg): approximately 13 % of the nominal dose | lung dose (part of nominal dose that reached the lung) (inhaled dry powder): 16.3 % of the nominal dose | total part of the dry powder reaching the body (inhaled dry powder): 18.8 % of the nominal dose | concentration at 0 h (male, human, plasma, inhaled, 1000 μg, healthy male subjects, single 1000 μg inhale + Charcoal Block, N = 16): < 0.05 ng/mL | concentration at 0.25 h [1]: 0.0583 ng/mL | concentration at 0.5 h [1]: 0.261 ng/mL | concentration at 0.75 h [1]: 0.491 ng/mL | concentration at 1 h [1]: 0.662 ng/mL | concentration at 1.5 h [1]: 0.9 ng/mL | concentration at 2 h [1]: 0.969 ng/mL | concentration at 2.5 h [1]: 1.02 ng/mL | concentration at 3 h [1]: 0.933 ng/mL | concentration at 4 h [1]: 0.812 ng/mL | concentration at 6 h [1]: 0.508 ng/mL | concentration at 8 h [1]: 0.373 ng/mL | concentration at 12 h [1]: 0.22 ng/mL | concentration at 15 h [1]: 0.157 ng/mL | concentration at 24 h [1]: 0.0931 ng/mL | concentration at 28 h [1]: 0.0761 ng/mL | concentration at 32 h [1]: 0.0696 ng/mL | concentration at 36 h [1]: 0.054 ng/mL | concentration at 0 h (male, human, plasma, inhaled, 1000 μg, healthy male subjects, single 1000 μg inhale, N = 16): < 0.05 ng/mL | concentration at 0.25 h [2]: 0.0628 ng/mL | concentration at 0.5 h [2]: 0.316 ng/mL | concentration at 0.75 h [2]: 0.622 ng/mL | concentration at 1 h [2]: 0.869 ng/mL | concentration at 1.5 h [2]: 1.16 ng/mL | concentration at 2 h [2]: 1.2 ng/mL | concentration at 2.5 h [2]: 1.18 ng/mL | concentration at 3 h [2]: 1.07 ng/mL | concentration at 4 h [2]: 0.927 ng/mL | concentration at 6 h [2]: 0.583 ng/mL | concentration at 8 h [2]: 0.415 ng/mL | concentration at 12 h [2]: 0.25 ng/mL | concentration at 15 h [2]: 0.181 ng/mL | concentration at 24 h [2]: 0.106 ng/mL | concentration at 28 h [2]: 0.0793 ng/mL | concentration at 32 h [2]: 0.0698 ng/mL | concentration at 36 h [2]: 0.058 ng/mL | concentration at 0 h (male, human, plasma, iv, 100 μg, healthy male subjects, 100 μg IV infusion over 2 h, N = 15): < 0.05 ng/mL | concentration at 0.25 h [3]: 1.76 ng/mL | concentration at 0.5 h [3]: 2.52 ng/mL | concentration at 0.75 h [3]: 2.68 ng/mL | concentration at 1 h [3]: 2.99 ng/mL | concentration at 1.5 h [3]: 3.15 ng/mL | concentration at 2 h [3]: 3.07 ng/mL | concentration at 2.083 h (male, human, plasma, iv, 100 μg, healthy male subjects, 100 μg IV infusion over 2 h, N = 15, 2.083 h after dose, read-out: Geometric mean of plasma concentrations): 2.57 ng/mL | concentration at 2.25 h (male, human, plasma, iv, 100 μg, healthy male subjects, 100 μg IV infusion over 2 h, N = 15, 2.25 h after dose, read-out: Geometric mean of plasma concentrations): 1.42 ng/mL | concentration at 2.5 h [3]: 0.559 ng/mL | concentration at 2.75 h (male, human, plasma, iv, 100 μg, healthy male subjects, 100 μg IV infusion over 2 h, N = 15, 2.75 h after dose, read-out: Geometric mean of plasma concentrations): 0.264 ng/mL | concentration at 3 h [3]: 0.132 ng/mL | concentration at 0 h (male, human, plasma, po, 1000 μg, healthy male subjects, single 1000 μg oral, N = 16): < 0.05 ng/mL | concentration at 0.25 h [4]: 0.777 ng/mL | concentration at 0.5 h [4]: 3.64 ng/mL | concentration at 0.75 h [4]: 5.28 ng/mL | concentration at 1 h [4]: 5.68 ng/mL | concentration at 1.5 h [4]: 4.69 ng/mL | concentration at 2 h [4]: 3.32 ng/mL | concentration at 2.5 h [4]: 2.26 ng/mL | concentration at 3 h [4]: 1.6 ng/mL | concentration at 4 h [4]: 1.01 ng/mL | concentration at 6 h [4]: 0.424 ng/mL | concentration at 8 h [4]: 0.233 ng/mL | concentration at 12 h [4]: 0.126 ng/mL | concentration at 15 h [4]: 0.0714 ng/mL
